# Where two headings read alike, the source gives them in different places.
# Legend:
# [1] = Study P038 rifampin sub-study: adverse events; type: in vivo, human; settings: for AE: Abnormal dreams / AE: Diarrhea / AE: Headache / AE: Nausea / AE: Somnolence / AE: Vessel puncture site hematoma / ECI: Euphoric mood / ECI: Hypnagogic hallucination / ECI: Hypnopompic hallucination / ECI: Sleep paralysis / Subjects with ≥ 1 AE: Study P038 rifampin sub-study, N = 10
# [2] = type: in vivo, human
# [3] = Study P038 diltiazem sub-study: adverse events; type: in vivo, human; settings: for AE: Abnormal dreams / AE: Diarrhea / AE: Headache / AE: Nausea / AE: Somnolence / AE: Vessel puncture site hematoma / ECI: Euphoric mood / ECI: Hypnagogic hallucination / ECI: Hypnopompic hallucination / ECI: Sleep paralysis / Subjects with ≥ 1 AE: Study P038 diltiazem sub-study, N = 20
# [4] = in vivo; cited from earlier work
# [5] = type: in vivo, human; remark: listed apart in the source
# [6] = Safety assessments across both studies; type: in vivo, human
# [7] = Study P008: adverse events; type: in vivo, human; settings: for AE: Abnormal dreams / AE: Diarrhea / AE: Headache / AE: Nausea / AE: Somnolence / AE: Vessel puncture site hematoma / ECI: Euphoric mood / ECI: Hypnagogic hallucination / ECI: Hypnopompic hallucination / ECI: Sleep paralysis / Subjects with ≥ 1 AE: N = 10
# [8] = Suvorexant pharmacokinetics across both trials; type: in vivo; settings: human, plasma, oral
# [9] = type: in vivo, human; remark: listed apart in the source
# [10] = suvorexant 40 mg alone, listed as suvorexant
# [11] = suvorexant 20 mg + diltiazem, listed as suvorexant
smiles,measurement,setting,value
"Cc1ccc(-n2nccn2)c(C(=O)N2CCN(c3nc4cc(Cl)ccc4o3)CC[C@H]2C)c1 [Suvorexant, suvorexant]",AE: Abnormal dreams,[1]; suvorexant 40 mg + rifampin,3 (30) n (%)
same,AE: Diarrhea,[1]; suvorexant 40 mg + rifampin,0 (0) n (%)
same,AE: Headache,[1]; suvorexant 40 mg + rifampin,2 (20) n (%)
same,AE: Nausea,[1]; suvorexant 40 mg + rifampin,0 (0) n (%)
same,AE: Somnolence,[1]; suvorexant 40 mg + rifampin,9 (90) n (%)
same,AE: Vessel puncture site hematoma,[1]; suvorexant 40 mg + rifampin,0 (0) n (%)
same,ECI: Euphoric mood,[1]; suvorexant 40 mg + rifampin,0 (0) n (%)
same,ECI: Hypnagogic hallucination,[1]; suvorexant 40 mg + rifampin,0 (0) n (%)
same,ECI: Hypnopompic hallucination,[1]; suvorexant 40 mg + rifampin,0 (0) n (%)
same,ECI: Sleep paralysis,[1]; suvorexant 40 mg + rifampin,0 (0) n (%)
same,Subjects with ≥ 1 AE,[1]; suvorexant 40 mg + rifampin,10 (100) n (%)
same,Subjects with ≥ 1 AE,"[1]; suvorexant 40 mg + rifampin, listed as suvorexant",10 (100%) n (%)
same,AE: Abnormal dreams,[1]; suvorexant 40 mg alone,2 (20) n (%)
same,AE: Diarrhea,[1]; suvorexant 40 mg alone,0 (0) n (%)
same,AE: Headache,[1]; suvorexant 40 mg alone,1 (10) n (%)
same,AE: Nausea,[1]; suvorexant 40 mg alone,0 (0) n (%)
same,AE: Somnolence,[1]; suvorexant 40 mg alone,10 (100) n (%)
same,AE: Vessel puncture site hematoma,[1]; suvorexant 40 mg alone,3 (30) n (%)
same,ECI: Euphoric mood,[1]; suvorexant 40 mg alone,1 (10) n (%)
same,ECI: Hypnagogic hallucination,[1]; suvorexant 40 mg alone,1 (10) n (%)
same,ECI: Hypnopompic hallucination,[1]; suvorexant 40 mg alone,1 (10) n (%)
same,ECI: Sleep paralysis,[1]; suvorexant 40 mg alone,1 (10) n (%)
same,Subjects with ≥ 1 AE,[1]; suvorexant 40 mg alone,10 (100) n (%)
same,ECI: Euphoric mood,[1]; [10],1 n (%)
same,ECI: Hypnagogic hallucination,[1]; [10],1 n (%)
same,ECI: Hypnopompic hallucination,[1]; [10],1 n (%)
same,ECI: Sleep paralysis,[1]; [10],1 n (%)
same,Subjects with ≥ 1 AE,[1]; [10],10 (100%) n (%)
same,Duration of ECI hypnopompic hallucination,[1]; suvorexant 40 mg in the rifampin sub-study,1 min
same,Decrease in suvorexant Cmax on co-administration with rifampin,"[2]; Study P038, suvorexant 40 mg, rifampin 600 mg once daily",64%
same,AUC(0-inf),"[2]; human, plasma, po, 40 mg",13.6 µM·h
same,Cmax,"[2]; human, plasma, po, 40 mg",850 nM
same,Tmax,"[2]; human, plasma, po, 40 mg",2 h
same,half-life,"[2]; human, plasma, po, 40 mg",774 min
same,AE: Abnormal dreams,[3]; suvorexant 20 mg + diltiazem,1 (5) n (%)
same,AE: Diarrhea,[3]; suvorexant 20 mg + diltiazem,0 (0) n (%)
same,AE: Headache,[3]; suvorexant 20 mg + diltiazem,1 (5) n (%)
same,AE: Nausea,[3]; suvorexant 20 mg + diltiazem,0 (0) n (%)
same,AE: Somnolence,[3]; suvorexant 20 mg + diltiazem,17 (85) n (%)
same,AE: Vessel puncture site hematoma,[3]; suvorexant 20 mg + diltiazem,1 (5) n (%)
same,ECI: Euphoric mood,[3]; suvorexant 20 mg + diltiazem,1 (5) n (%)
same,ECI: Hypnagogic hallucination,[3]; suvorexant 20 mg + diltiazem,0 (0) n (%)
same,ECI: Hypnopompic hallucination,[3]; suvorexant 20 mg + diltiazem,0 (0) n (%)
same,ECI: Sleep paralysis,[3]; suvorexant 20 mg + diltiazem,0 (0) n (%)
same,Subjects with ≥ 1 AE,[3]; suvorexant 20 mg + diltiazem,18 (90) n (%)
same,ECI: Euphoric mood,[3]; [11],1 n (%)
same,Subjects with ≥ 1 AE,[3]; [11],18 (90%) n (%)
same,AE: Abnormal dreams,[3]; suvorexant 20 mg alone,1 (5) n (%)
same,AE: Diarrhea,[3]; suvorexant 20 mg alone,2 (10) n (%)
same,AE: Headache,[3]; suvorexant 20 mg alone,0 (0) n (%)
same,AE: Nausea,[3]; suvorexant 20 mg alone,2 (10) n (%)
same,AE: Somnolence,[3]; suvorexant 20 mg alone,19 (95) n (%)
same,AE: Vessel puncture site hematoma,[3]; suvorexant 20 mg alone,1 (5) n (%)
same,ECI: Euphoric mood,[3]; suvorexant 20 mg alone,0 (0) n (%)
same,ECI: Hypnagogic hallucination,[3]; suvorexant 20 mg alone,0 (0) n (%)
same,ECI: Hypnopompic hallucination,[3]; suvorexant 20 mg alone,0 (0) n (%)
same,ECI: Sleep paralysis,[3]; suvorexant 20 mg alone,0 (0) n (%)
same,Subjects with ≥ 1 AE,[3]; suvorexant 20 mg alone,20 (100) n (%)
same,Subjects with ≥ 1 AE,"[3]; suvorexant 20 mg alone, listed as suvorexant",20 (100%) n (%)
same,Duration of ECI euphoric mood,[3]; suvorexant 20 mg plus diltiazem,1 h
same,Effect on psychomotor performance,[4],no clinically meaningful effect on psycho-motor performance
same,Reaction time (choice reaction time and simple reaction time),[4],statistically significant prolongation in reaction time
same,Prolongation (increase) in t½ on co-administration with ketoconazole,"[5]; Study P008, suvorexant 4 mg, ketoconazole 400 mg once daily",8.2 h
same,AUC(0-inf),"[5]; human, plasma, po, 4 mg",2.61 µM·h
same,Cmax,"[5]; human, plasma, po, 4 mg",280 nM
same,Tmax,"[5]; human, plasma, po, 4 mg",1 h
same,half-life,"[5]; human, plasma, po, 4 mg",672 min
same,"Changes in vital signs, laboratory safety tests, physical examination, or ECG monitoring",[6]; across both studies,no clinically meaningful changes
same,Intensity of AEs,"[6]; both trials, the moderate AE was in the P038 diltiazem sub-study","All AEs were mild in intensity, except one moderate AE of headache"
same,Serious AEs or deaths,"[6]; either trial (P008, P038), suvorexant alone or with CYP3A inhibitor/inducer",no serious AEs or deaths
same,Tolerability of single suvorexant doses,"[6]; healthy subjects, co-administered with/without a CYP3A inhibitor/inducer",generally well tolerated
same,AE: Abnormal dreams,[7]; suvorexant 4 mg + ketoconazole,0 (0) n (%)
same,AE: Diarrhea,[7]; suvorexant 4 mg + ketoconazole,0 (0) n (%)
same,AE: Headache,[7]; suvorexant 4 mg + ketoconazole,1 (10) n (%)
same,AE: Nausea,[7]; suvorexant 4 mg + ketoconazole,0 (0) n (%)
same,AE: Somnolence,[7]; suvorexant 4 mg + ketoconazole,7 (70) n (%)
same,AE: Vessel puncture site hematoma,[7]; suvorexant 4 mg + ketoconazole,0 (0) n (%)
same,ECI: Euphoric mood,[7]; suvorexant 4 mg + ketoconazole,0 (0) n (%)
same,ECI: Hypnagogic hallucination,[7]; suvorexant 4 mg + ketoconazole,0 (0) n (%)
same,ECI: Hypnopompic hallucination,[7]; suvorexant 4 mg + ketoconazole,0 (0) n (%)
same,ECI: Sleep paralysis,[7]; suvorexant 4 mg + ketoconazole,0 (0) n (%)
same,Subjects with ≥ 1 AE,[7]; suvorexant 4 mg + ketoconazole,7 (70) n (%)
same,AEs considered events of clinical interest (ECIs),[7]; suvorexant 4 mg alone or with ketoconazole,no AEs were considered to be ECIs
same,AE: Abnormal dreams,[7]; suvorexant 4 mg alone,0 (0) n (%)
same,AE: Diarrhea,[7]; suvorexant 4 mg alone,0 (0) n (%)
same,AE: Headache,[7]; suvorexant 4 mg alone,0 (0) n (%)
same,AE: Nausea,[7]; suvorexant 4 mg alone,0 (0) n (%)
same,AE: Somnolence,[7]; suvorexant 4 mg alone,6 (60) n (%)
same,AE: Vessel puncture site hematoma,[7]; suvorexant 4 mg alone,0 (0) n (%)
same,ECI: Euphoric mood,[7]; suvorexant 4 mg alone,0 (0) n (%)
same,ECI: Hypnagogic hallucination,[7]; suvorexant 4 mg alone,0 (0) n (%)
same,ECI: Hypnopompic hallucination,[7]; suvorexant 4 mg alone,0 (0) n (%)
same,ECI: Sleep paralysis,[7]; suvorexant 4 mg alone,0 (0) n (%)
same,Subjects with ≥ 1 AE,[7]; suvorexant 4 mg alone,6 (60) n (%)
same,Tmax,[8],1 to 2 h
same,half-life,[8]; 40 mg,672 to 774 min
same,Prolongation (increase) in t½ on co-administration with diltiazem,"[9]; Study P038 diltiazem sub-study, suvorexant 20 mg, diltiazem 240 mg once daily",3.7 h
same,AUC(0-inf),"[9]; human, plasma, po, 20 mg",7.88 µM·h
same,Cmax,"[9]; human, plasma, po, 20 mg",620 nM
same,Tmax,"[9]; human, plasma, po, 20 mg",1.5 h
same,half-life,"[9]; human, plasma, po, 20 mg",744 min

# From PMC6929321 (Clinical drug investigation, 2019)
